Converted amounts (≈) assume the structure as drawn.
What was measured:
[1] = target: T1, human GABAA receptors containing the α5 subunit stably expressed in Ltk cells (Homo sapiens, UniProt P18507+P31644); experiment: displacement of [3H]-flumazenil ([3H]Ro 15-1788) from the benzodiazepine binding site; conditions: read-out: Ki value for displacement of [3H]Ro 15-1788 from the α5 subunit of the human GABAA receptor
T1 construct: expressed in transfected cells; host or cells: Ltk cells (mouse fibroblasts), stably expressing
T1 sequence (P31644 32-462): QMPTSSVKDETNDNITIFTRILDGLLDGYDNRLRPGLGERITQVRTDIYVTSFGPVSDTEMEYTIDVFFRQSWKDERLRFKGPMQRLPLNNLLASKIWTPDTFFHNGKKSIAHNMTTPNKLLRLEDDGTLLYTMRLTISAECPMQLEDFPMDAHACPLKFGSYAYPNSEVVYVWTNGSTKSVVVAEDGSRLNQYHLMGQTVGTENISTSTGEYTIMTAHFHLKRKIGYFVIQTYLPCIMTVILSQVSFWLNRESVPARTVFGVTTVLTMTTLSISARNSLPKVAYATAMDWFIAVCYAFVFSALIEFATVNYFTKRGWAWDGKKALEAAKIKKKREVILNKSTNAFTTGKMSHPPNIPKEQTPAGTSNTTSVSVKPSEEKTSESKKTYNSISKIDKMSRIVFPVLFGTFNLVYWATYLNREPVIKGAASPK
T1 sequence (P18507 40-467 limits assumed): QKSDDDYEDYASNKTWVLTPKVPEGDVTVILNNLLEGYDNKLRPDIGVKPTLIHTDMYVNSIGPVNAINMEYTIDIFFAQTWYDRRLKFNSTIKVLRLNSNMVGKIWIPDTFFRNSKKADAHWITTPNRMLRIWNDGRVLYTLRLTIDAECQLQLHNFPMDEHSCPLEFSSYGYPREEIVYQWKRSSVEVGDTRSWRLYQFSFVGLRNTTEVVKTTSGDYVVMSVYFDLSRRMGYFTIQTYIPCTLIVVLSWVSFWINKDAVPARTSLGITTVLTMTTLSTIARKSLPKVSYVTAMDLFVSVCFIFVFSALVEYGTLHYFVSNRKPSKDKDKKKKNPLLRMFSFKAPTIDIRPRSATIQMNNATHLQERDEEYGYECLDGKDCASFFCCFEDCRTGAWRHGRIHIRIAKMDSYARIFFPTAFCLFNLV
T1 sequence (P28472 26-473 partner): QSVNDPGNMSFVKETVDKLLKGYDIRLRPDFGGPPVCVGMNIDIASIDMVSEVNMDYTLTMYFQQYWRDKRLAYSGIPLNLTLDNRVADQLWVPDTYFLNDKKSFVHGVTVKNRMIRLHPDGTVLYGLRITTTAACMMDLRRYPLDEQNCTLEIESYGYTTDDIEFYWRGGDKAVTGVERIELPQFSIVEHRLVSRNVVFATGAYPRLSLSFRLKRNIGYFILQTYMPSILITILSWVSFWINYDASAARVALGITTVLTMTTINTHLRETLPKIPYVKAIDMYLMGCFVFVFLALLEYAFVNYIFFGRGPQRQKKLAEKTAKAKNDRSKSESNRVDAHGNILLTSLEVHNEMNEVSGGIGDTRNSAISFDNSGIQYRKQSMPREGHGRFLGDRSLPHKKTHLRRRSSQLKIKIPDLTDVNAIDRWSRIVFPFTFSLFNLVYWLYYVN

[2] = system: rat; experiment: rat water maze test (cognition enhancement); type: in vivo
[3] = system: receptor; experiment: receptor occupancy at the minimum effective dose; type: in vivo, rat; conditions: at the minimum effective dose of 0.3 mg/kg
[4] = time dependent solubility in 2.5% aqueous di-sodium pamoate solution by HPLC; type: physicochemical
Description: To a stirred, light protected glass vial was added 23.0 mL 2.5% aqueous di-sodium pamoate solution and 42 mg 3-(5-methylisoxazol-3-yl)-6-(1-methyl-1,2,3-triazol-4-yl)methyloxy-1,2,4-triazolo[3,4-a]phthalazine. Aliquots were removed by 3 mL syringe at various time intervals, passed through 0.22 μm Millex-GV low protein binding syringe filters, and diluted to appropriate concentrations with 50/50 MeCN/H2O for HPLC analysis.

[5] = exposure of the anhydrous form to pure water (XRPD of solids); type: physicochemical
Description: To an Eppendorf tube was added 1 mL USP water and 20 mg 3-(5-methylisoxazol-3-yl)-6-(1-methyl-1,2, 3-triazol-4-yl)methyloxy-1,2, 4-triazolo[3,4-a]phthalazine. The resulting suspension was vortexed for 10 seconds, then light protected with aluminium foil and placed on a rotary mixer for 72 hours. The solids were then vacuum filtered off and rinsed with 2xl mL water. Solids were partially wet when first analyzed by XRPD, afterward they were dried by house vacuum for 48 hours before more XRPD analysis.
The XRPD data have been described earlier with the exception of the incompletely converted material from the synthesis in water. […] Conversion may take place more rapidly if solubility is increased by the addition of di-sodium pamoate or by other means. The di-hydrate may also be prepared using a 10% solution of MeCN in water.

Compound | Ki [1] [nM] | minimum effective dose [2] [mg/kg] | enhancement of cognition ([2]; demonstrated at 0.3 mg/kg and 3 mg/kg) | receptor occupancy [3] [%] | solubility at 5 minutes ([4]; 2.5% aqueous di-sodium pamoate solution, aqueous with cosolvent or surfactant or cyclodextrin, thermodynamic from solid, 5 minutes (0.08 h), read-out: Concentration (solubility by HPLC)) [µg/mL] | solubility at 90 minutes ([4]; 2.5% aqueous di-sodium pamoate solution, aqueous with cosolvent or surfactant or cyclodextrin, thermodynamic from solid, 90 minutes (1.50 h), read-out: Concentration (solubility by HPLC)) [µg/mL] | solubility at 930 minutes ([4]; 2.5% aqueous di-sodium pamoate solution, aqueous with cosolvent or surfactant or cyclodextrin, thermodynamic from solid, 930 minutes (15.5 h), read-out: Concentration (solubility by HPLC)) [µg/mL] | solubility at 1500 minutes ([4]; 2.5% aqueous di-sodium pamoate solution, aqueous with cosolvent or surfactant or cyclodextrin, thermodynamic from solid, 1500 minutes (25.0 h), read-out: Concentration (solubility by HPLC)) [µg/mL] | solubility at 2910 minutes ([4]; 2.5% aqueous di-sodium pamoate solution, aqueous with cosolvent or surfactant or cyclodextrin, thermodynamic from solid, 2910 minutes (48.5 h), read-out: Concentration (solubility by HPLC)) [µg/mL] | % of 5 Minute Value ([4]; 5 minutes (0.08 h)) [%] | % of 5 Minute Value ([4]; 90 minutes (1.50 h)) [%] | % of 5 Minute Value ([4]; 930 minutes (15.5 h)) [%] | % of 5 Minute Value ([4]; 1500 minutes (25.0 h)) [%] | % of 5 Minute Value ([4]; 2910 minutes (48.5 h)) [%] | decrease in solubility over time, % of the original solubility after 5 minutes ([4]; summary of Table 1) [%] | solubility in pure water [5] | melting point [°C]
Cc1cc(-c2nnc3c4ccccc4c(OCc4cn(C)nn4)nn23)no1 [L-822, 179, 3-(5-methylisoxazol-3-yl)-6-(1-methyl-1,2,3-triazol-4-yl)methyloxy-1,2,4-triazolo[3,4-a]phthalazine] | ≤ 100 | 0.3 | enhance cognition | 40 | 1890 (≈ 5.22 mM) | 1920 (≈ 5.3 mM) | 1410 (≈ 3.89 mM) | 1290 (≈ 3.56 mM) | 1240 (≈ 3.42 mM) | 100.0 | 101.4 | 74.5 | 68.0 | 65.4 | ~65 | extreme insolubility | 
Cc1cc(-c2nnc3c4ccccc4c(OCc4cccc(Br)n4)nn23)no1 [compound 2, 6-(6-Bromopyridin-2-yl)methyloxy-3-(5-methylisoxazol-3-yl)-1,2,4-triazolo[3,4-a]phthalazine] |  |  |  |  |  |  |  |  |  |  |  |  |  |  |  |  | 247.5 to 249

Source: patent publication US6534505B2, “Therapeutic polymorphs of a GABA-A alpha-5 inverse agonist and pamoate formulations of the same” (Merck & Co., Inc., priority 1998, dated 2003)
